Assay results from paper PMC12867150, “A fungi-derived cyclic peptide enhances Th9-mediated antitumor immunity by targeting ZAP70 and SREBP1” (The Journal of Clinical Investigation, 2025).
Where “and” joins values, the source holds several entries; their conditions need not be identical. Identical values can stand only once. Counter-ions that a name gives are not always drawn.

Tests used:
[1] = test system: gene expression in Th9 cells; test: Bulk RNA-seq of Th9 cells (Figure 3A-D, 7G, S5B, S8G-H); type: cell-based, mouse; set-up: key to Il13 expression (RNA-seq) / Batf expression (RNA-seq) / Il4 expression (RNA-seq) / Il5 expression (RNA-seq) / Il9 expression (RNA-seq) / Tnfsf15 expression (RNA-seq) / Tnf expression (RNA-seq) / Lta expression (RNA-seq) / Fasl expression (RNA-seq) / Tnfsf9 expression (RNA-seq) / Tnfsf14 expression (RNA-seq): FPKM (fragments per kilobase of transcript per million mapped reads); conditions: for cluster 2 genes (calcium ion transport, glycolysis, oxidative phosphorylation, ERK signaling) / lipid biosynthesis genes: RNA-seq clustering; for Fpkm of Slc2a1: Supplemental Figure 5B
Experimental: RNA integrity and concentration were assessed by Majorbio Technologies. RNA-seq libraries were constructed following standard Illumina protocols and sequenced using a paired-end strategy on an Illumina platform.
Raw sequencing reads were quality filtered and adapter trimmed using Trim Galore (v0.6.x) and then aligned to the mouse reference genome (GRCm38) with HISAT2 (v2.2.x). Gene-level quantification was performed using featureCounts (v2.0.x) to obtain raw read counts, which were subsequently normalized as fragments per kilobase of transcript per million mapped reads for exploratory analyses and data visualization.
Differential gene expression analysis was conducted using DESeq2 (v1.44.0) in R, with significance thresholds set at an adjusted P < 0.05 and absolute fold change ≥1.5. Visualization of transcriptomic profiles included volcano plots generated via ggplot2 (v3.5.1) and heatmaps rendered using pheatmap (v1.0.12), based on raw expression values.
Gene expression clustering was conducted using the R package ClusterGVis (v0.1.2).

[2] = test system: PD-1 on Th9 cells; test: Flow cytometry of PD-1 on Th9 cells in vitro (Figure 5K, 7E, S3D); type: cell-based, mouse; conditions: for PD-1 expression in Th9 cells: Figure 7E, one per column (n = 4); for PD-1 expression in Th9 cells / PD1 (flow cytometric quantification): individual replicates; for PD-1 expression: result in words; for PD1 (flow cytometric quantification): Figure 5K, (n = 5); for Expression of PD-1 in Th9: Supplemental Figure 3D
Experimental: Naive CD4^+ T cells were isolated from the spleens of C57BL/6J or CD45.1^+ OT-II mice using the MojoSort Mouse CD4 Naive T Cell Isolation Kit (BioLegend, catalog 480040), following the manufacturer’s protocol. Purified cells were cultured in RPMI-1640 medium supplemented with 10% FBS, 1% penicillin-streptomycin, and 0.1% β-mercaptoethanol (Gibco, catalog 21985023).
T cell polarization was initiated under plate-bound anti-CD3 (2 μg/mL, clone 17A2, BioXCell, catalog BE0002) and soluble anti-CD28 (1 μg/mL, clone 37.51, BioXCell, catalog BE0015-1) stimulation, with the addition of cytokines and neutralizing antibodies specific to each subset. For Th9 cells, these included IL-4 (10 ng/mL, Peprotech, catalog 400-04), TGF-β (1 ng/mL, EPOTO Biotech, catalog HF-2021), anti–IL-12 (5 μg/mL, clone C17.8, BioXCell, catalog BE0051), and anti–IFN-γ (10 μg/mL, clone XMG1.2, BioXCell, catalog BE0055); for Th1 cells, these included IL-12 (10 ng/mL, GenScript, catalog Z03211-50) and anti–IL-4 (5 μg/mL, clone 11B11, BioXCell, catalog BE0045); for Th2 cells, these included IL-4 (50 ng/mL), anti–IFN-γ (20 μg /mL), anti–IL-12 (5 μg/mL), Th17 cells: IL-6 (20 ng/mL, EPOTO Biotech, catalog MF-1006), TGF-β (1 ng/mL), IL-1β (10 ng/mL, Peprotech, catalog AF-211-11B), anti–IFN-γ (10 μg/mL), anti–IL-12 (5 μg/mL), and anti–IL-4 (5 μg/mL); and for Tregs, these included TGF-β (3 ng/mL). After 3 days of initial culture, cells were either collected for downstream assays or continued in extended culture with refreshed cytokines to maintain lineage commitment.
Details regarding staining panels (human and mouse), reagents (including clones and catalog numbers), acquisition settings, compensation/controls, and analysis procedures are provided in Supplemental Methods.
BioLegend, Cat. No. 422301 or Mouse TruStain FcX™, BioLegend, Cat. No. 101319) for 10 minutes at 4°C. For surface marker detection, cells were stained with fluorochrome-conjugated monoclonal antibodies in 96-well V-bottom plates and incubated on ice for 30 minutes. After staining, cells were washed twice and resuspended in FACS buffer for analysis.
Prior to intracellular cytokine staining, cells were restimulated for 4 hours with PMA (Absin, Cat. No. abs9107), ionomycin (Sigma-Aldrich, Cat. No. I0634), and brefeldin A (MedChemExpress, Cat. No. HY-16592). For intracellular cytokine staining, cells were first surface-stained as described above, then fixed and permeabilized using the BD Cytofix/Cytoperm™ kit (BD Biosciences, Cat. No. 554714) according to the manufacturer ’s protocol. Intracellular proteins were stained with directly conjugated antibodies targeting IL-9, IL-17a, IL-4, IFN-γ, TNF-α, FOXP3, p-ZAP70, Perforin, and […]
Antibodies used for mouse samples included those against IL-9 (PE, clone RM9A4, Biolegend, Cat. No. 514104), IFN-γ (PE, clone XMG1.2, Biolegend, Cat. No.
Cat. No. 103138), CD4 (APC/Cy7, clone E-AB-F1353UJ, Elabscience, Cat. No.
AF18028), CD8α (PerCP/Cy5.5, clone E-AB-F1104UJ, Elabscience, Cat. No. […]
clone E-AB-F1187UH, Elabscience, Cat. No. AF19854), TNF-α (BV421, clone MP6-XT22, Biolegend, Cat. No. 506328), FOXP3 (PE, clone FJK-16s, eBioscience, Cat. No.
Perforin (APC, clone S16009A, Biolegend, Cat. No. 154303) and Granzyme B (APC, […]
clone QA16A02, Biolegend, Cat. No. 372203). […]

[3] = EpA + fatostatin, result in words
[4] = EpA vs control, adjusted P < 0.05, fold change ≥1.5
[5] = Th9, day 4, samples EPA_1 to EPA_3

## CCCc1cc(-c2nc(-c3ccc(C)cc3)cs2)ccn1 [fatostatin, fatostatin hydrobromide, reference compound]
[1]; result in words
  cluster 2 genes (calcium ion transport, glycolysis, oxidative phosphorylation, ERK signaling): further enhanced
  lipid biosynthesis genes: further suppressed
[2]; single agent, 10 µM
  PD-1 expression in Th9 cells: 384 and 402 and 369 and 372
[2]; fatostatin alone or with EpA
  PD-1 expression: induced PD-1 upregulation in control Th9 cells

## anteiso-C15 Leu7 surfactin [EpA]
[1]; [3]
  Fads1 expression: reduced expression
  Srebp1 expression: reduced expression
[1]; [4]
  number of downregulated genes: 271
  number of upregulated genes: 228
[1]; result in words
  cluster 2 genes (calcium ion transport, glycolysis, oxidative phosphorylation, ERK signaling): notably upregulated
  lipid biosynthesis genes: progressively downregulated
  SLC2A1 expression: markedly upregulated
  Th9 cytokines (Il9, Il4, Il5, Il13) and Spi1, Batf expression: upregulated
  cytotoxic effector molecules Tnf, Lta, Fasl: strong upregulation
[1]; replicate 1
  Fpkm of Slc2a1: 48.3562 Fpkm
[1]; replicate 2
  Fpkm of Slc2a1: 48.7446 Fpkm
[1]; replicate 3
  Fpkm of Slc2a1: 49.9027 Fpkm
[1]; [5]
  Batf expression (RNA-seq): 93.0998 and 96.722 and 96.1164
  Fasl expression (RNA-seq): 9.708 and 9.458 and 10.2176
  Il4 expression (RNA-seq): 8.523 and 8.979 and 8.835
  Il5 expression (RNA-seq): 0.7687 and 0.6368 and 0.9066
  Il9 expression (RNA-seq): 619.89 and 651.961 and 648.029
  Il13 expression (RNA-seq): 15.584 and 17.9728 and 14.2881
  Lta expression (RNA-seq): 41.371 and 42.2064 and 41.7705
  Tnf expression (RNA-seq): 5.46 and 5.834 and 6.11
  Tnfsf9 expression (RNA-seq): 1.423 and 1.362 and 1.3365
  Tnfsf14 expression (RNA-seq): 5.499 and 5.503 and 5.511
  Tnfsf15 expression (RNA-seq): 0.1165 and 0.1206 and 0.07294
[2]; EpA-Th9 cells in vitro
  PD-1 expression: increased PD-1 expression
[2]; EpA + ERKin combination
  PD1 (flow cytometric quantification): 205 and 196 and 199 and 194 and 192
[2]; EpA + MEKin combination
  PD1 (flow cytometric quantification): 163 and 169 and 166 and 170 and 159
[2]; single agent
  PD1 (flow cytometric quantification): 986 and 1657 and 450 and 878 and 1491
[2]; EpA (10 µM) + Fatostatin (10 µM)
  PD-1 expression in Th9 cells: 424 and 342 and 382 and 324
[2]; single agent, 10 µM
  PD-1 expression in Th9 cells: 366 and 370 and 368 and 374
[2]; replicate 1
  Expression of PD-1 in Th9: 836
[2]; replicate 2
  Expression of PD-1 in Th9: 830
[2]; replicate 3
  Expression of PD-1 in Th9: 871
[2]; replicate 4
  Expression of PD-1 in Th9: 812
[2]; replicate 5
  Expression of PD-1 in Th9: 848
[2]; replicate 6
  Expression of PD-1 in Th9: 842
[2]; fatostatin alone or with EpA
  PD-1 expression: not further increased in EpA-Th9 cells treated with fatostatin
